In patent US10918687B2, “Kava derived therapeutic compounds and methods of use thereof” (KUALITY HERBCEUTICS LLC, priority 2013, dated 2021):

Legend:
[1] = test system: APAP-induced hepatotoxicity; experiment: Short-term combination study: potentiation of APAP-induced hepatotoxicity in C57BL/6 mice
Excerpt: Six week-old female C57BL/6J mice (Jackson Laboratories, ME) were housed at specific pathogen-free animal facilities of Research Animal Resources, University of Minnesota with free access to standard rodent food and water. All mice were acclimatized for one week before being used for experiments. Mice were gavaged with dose formulations at the indicated doses and times, euthanized by CO2 overdosing with necropsy performed by experienced researchers.
The short-term combination studies were designed to evaluate the potential synergism of kava and its chemicals to APAP induced hepatotoxicity. C57BL/6 mice were randomized (8-15 mice per group) and were administered with PEG-400 (200 μL), kava (500 mg/kg bodyweight), DHM or FKA and FKB in PEG-400 (200 μL) at the indicated doses daily via oral gavage for two days. On the third day, mice in the respective groups were co-administered with APAP (800 mg/kg bodyweight) in PEG-400 (200 μL). Bodyweight was recorded daily. Necropsies were performed 24 hours after the last gavage by experienced researchers. Serum from each mouse was analyzed for ALT and AST. Livers were collected and preserved in 10% neutral buffered formalin. Appropriately fixed tissues were processed into paraffin blocks using standard histological techniques, and 5 μm sections were cut and stained with hematoxylin and eosin (H&E).
The clinical chemistry data were reported as mean±SD (n=4-15). […] One-way analysis of variance (ANOVA) was used to compare the means among different groups in the short-term combination studies. Dunnett's test was used for comparisons of APAP and other treatment groups when the one-way ANOVA analysis was statistically significant. p-value≤0.05 was considered statistically significant. All analyses were conducted in GraphPad Prism 4 (GraphPad Software, Inc. La Jolla, Calif.).

[2] = test system: NNK-induced DNA adducts in lung tissues; experiment: NNK-induced DNA adducts in A/J mouse lung tissues (LC-ESI-MS/MS); type: in vivo, A/J mice; conditions: 24 h after NNK
Excerpt: DNA was isolated from the whole lung tissue of each individual mouse following Puregene DNA isolation protocol (Qiagen Corp, Valencia, Calif.) (Urban et al., Chem Res Toxicol 2012; 25:2167-78). 7-pobG, O^2-pobdT, O^6-pobdG, and O^6-mG were quantified by LC-ESI-MS/MS, following established protocols (Urban et al., Chem Res Toxicol 2012; 25:2167-78; Peterson et al., Cancer Res 1991; 51:5557-64).
After one-week acclimation, A/J mice were weighed and randomized into seven groups (3 mice per group) and switched to the AIN-93 G diet on a date defined as Day 1. Mice in Groups 1 and 2 were given the AIN-93 G diet during Day 1-Day 7. Mice in Groups 3-7 were given the AIN-93 G diet supplemented with desmethoxyyangonin, (+)-DHK, (+)-kavain, (+)-DHM, or (+)-methysticin respectively, at a dose of 1 mg/g of diet during Day 1-Day 7. Mice in Groups 2-7 were given a single dose of NNK at 100 mg/kg bodyweight in saline (0.1 ml) via intraperitoneal (i.p.) injection at the beginning of Day 7 while mice in Group 1 were given saline (0.1 ml). Mice were euthanized by CO2 overdosing 24 h after NNK treatment, and lung tissues were collected and stored at −80° C. until DNA isolation. A number of NNK-induced DNA modifications (O^6-mG, 7-pobG, O^6-pobdG and O^2-pobdT) were quantified by following a reported procedure (Leitzman, P et al. (2014) Cancer. Prev. Res., 7: 86-96).
(§1) After one-week acclimation, A/J mice were weighed and randomized into ten groups (3 mice per group except for Group 1 that had one mouse as the negative control) and switched to the AIN-93 G diet on a date defined as Day 1. Mice in Groups 1 and 2 were given the AIN-93 G diet during Day 1-Day 7. Mice in Groups 3-10 were given the AIN-93 G diets supplemented with kava, (+)-DHK, (+)-DHM, and synthetic (±)-DHM respectively at the specified dose during Day 1-Day 7. Mice in Groups 2-10 were given a single dose of NNK at 100 mg/kg bodyweight in saline (0.1 ml) via i.p. injection at the beginning of Day 7 while the mouse in Group 1 was given saline (0.1 ml). Mice were euthanized by CO2 overdosing 24 h after NNK treatment, and lung and liver tissues were collected and stored at −80° C. until DNA isolation. A set of NNK-induced DNA adducts (O^6-mG, 7-mG, 7-pobG, O^6-pobdG, O^2-pobdT, 7-phbG, O^6-phbdG and O^2-phbdT) were quantified by following reported procedures (Leitzman, P et al. (2014) Cancer. Prev. Res., 7: 86-96; Peterson, L A et al. (2013) Chem. Res. Toxicol. 26: 1464-1473; Upadhyaya, P et al. (2008) Chem. Res. Toxicol. 21: 1468-1476). For 7-mG isolation, DNA (30 μg) was dissolved in 10 mM sodium phosphate buffer, pH 7 (500 μL) and spiked with [^13C1^2H3]7-mG (10 pmol). Samples were heated to 80° C. for 30 minutes. An aliquot (100 μL) was removed for 7-mG analysis.

[3] = test system: NNK-induced lung tumorigenesis; experiment: NNK-induced lung adenoma formation in A/J mice; type: in vivo; conditions: Example 4, Day 119
Method: Female A/J mice, 5-6 weeks of age from the Jackson Laboratory (Bar Harbor, Me.), were handled according to animal welfare protocols approved by IACUC at the University of Minnesota. […] After one-week acclimation, mice were weighed, randomized into different groups and switched to AIN-93G-powdered diet, defined as Day 1. The number of mice in each group was specified in the Result Section. On Day 7 and Day 14, mice in the negative control groups received 0.1 mL physiological saline solution while mice in the other groups received NNK (100 and 67 mg/kg respectively in 0.1 mL of physiological saline solution) via i.p. injection. At the end of Day 21, mice were switched to AIN-93M-powdered diet until the end of the study. Diet consumption was measured twice weekly and bodyweight was monitored weekly. All mice were euthanized with an overdose of carbon dioxide. The lungs were collected and tumors on the surface of the lung were counted.
Data on lung adenoma multiplicity were reported as mean±SD (n=5-40). […] For Experiment 2, unpaired t-test was used for comparison between NNK control and kava treatment groups. Two-sided p-value≤0.05 was considered statistically significant. Data on DNA adducts were reported as mean±SD (n=3). For the time-course study, unpaired […] was used for comparisons between NNK control and kava treatment groups. Two-sided p-value≤0.05 was considered statistically significant: *p<0.05, **p<0.01, and ***p<0.001. For the 24-h time point study, one-way ANOVA was used to compare means.
After one-week acclimation, mice were weighed, randomized into eight groups and switched to the AIN-93 G diet on a date defined as Day 1. The number of mice in each group is specified in the Results Section (FIG. 36). Mice were fed diets supplemented with different compounds at the dose specified in the Results Section during Day 1-Day 14. On Day 7 and Day 14, mice in the negative control group received 0.1 mL of saline solution while mice in the other groups received NNK (100 and 67 mg/kg, respectively, in 0.1 mL of saline solution) via i.p. injection. At the end of Day 21, mice were switched to the AIN-93 M diet until the end of the study. The diet was replenished twice weekly. The diet consumption was measured twice weekly and the bodyweight was monitored weekly. This study was terminated at the end of Day 119. All mice were euthanized with CO2 overdosing.

[4] = test system: NNK-induced DNA damage in liver tissues; experiment: NNK-induced DNA damage in A/J mouse liver tissues; type: in vivo, A/J mice; conditions: diet Day 1-Day 7, 24 h after NNK; data not shown
Method: DNA was isolated and purified from ˜100 mg lung and liver tissues of each mouse, following Genomic-tip 100/G protocol from Qiagen Corp (Valencia, Calif.).
as §1

CC(=O)Nc1ccc(O)cc1 [APAP, acetaminophen, reference compound]
serum ALT and AST activities ([1]; APAP alone 800 mg/kg bodyweight via gavage): significantly increased | liver lesions ([1]; APAP alone 800 mg/kg, lesions graded 0 to 4): evenly distributed among different severity categories

COC1=CC(=O)O[C@@H](CCc2ccccc2)C1 [(+)-DHK, (+)-dihydrokavain]
effect on O^6-mG and POB adducts ([2]; 1 mg/g of diet): did not reduce any of these adducts | lung adenoma formation (incidence and multiplicity) ([3]; 0.05 mg/g of diet Day 1-Day 14): no reduction at all | lung adenoma formation (incidence and multiplicity) ([3]; 0.5 mg/g of diet Day 1-Day 14): no reduction at all | effect on NNK-induced DNA damage in the liver tissues [4]: none of the treatments had significant effects

COC1=CC(=O)O[C@@H](/C=C/c2ccc3c(c2)OCO3)C1 [(+)-methysticin]
effect on NNK-induced O^6-mG ([2]; isolated kavalactones 1 mg/g of diet Day 1-Day 7): significantly reduced

COC1=CC(=O)O[C@@H](CCc2ccc3c(c2)OCO3)C1 (racemic) [(±)-DHM, (±)-dihydromethysticin]
lung adenoma formation (incidence and multiplicity) ([3]; 0.5 mg/g of diet Day 1-Day 14): adenoma free | effect on NNK-induced DNA damage in the liver tissues [4]: none of the treatments had significant effects
